From patent US8748661B2, “Polyamino polyketide antibiotics and uses thereof” (priority 2008, dated 2014)
In brackets after ≈: the same amount, converted by molar mass.

What was measured:
Type in all cases: cell-based
[1] = tested on: Escherichia coli strain DH5α; experiment: Antibiotic bioassay (agar well inhibition zone); details: 20 microliters of fraction in 4-mm wells, 37° C. overnight
Method: The bactericidal activity was assayed using Escherichia coli strain DH5α following the method described previously by Zhang et al. (Zhang et al. (1998). Factors affecting biosynthesis by Xanthomonas albilineans of albicidin antibiotics and phytotoxins. J. Appl. Microbiol. 85: 1023-1028). Briefly, an overnight LB culture of strain DH5α was diluted by 10-fold in sterilized water, and 100 microliters of the dilute were added to 5 ml of 1% agarose solution, which was autoclaved with temperature being maintained at 50° C. The bioassay plate was prepared by adding the mixture onto a plate containing 20 ml LB agar. Bioassay was conducted by adding 20 microliters of bacterial supernatants or fractions to the 4-mm diameter wells in bioassay plate. The plate was incubated at 37° C. overnight before examination of inhibition zone.

[2] = tested on: Gram-negative and Gram-positive bacterial pathogens; experiment: MIC on a range of bacterial pathogens (summary statement); details: summary of Table 3, in words
Method: (§1) The minimum inhibition concentration (MIC) of zeamine I was carried out according to the NCCLS guidelines (4). Briefly, 96-well plates containing 2-fold serial dilutions of zeamine I and control antibiotics were prepared with LB liquid medium. The fresh overnight LB cultures of tested bacterial strains were then inoculated to the above plates after dilution to yield a final density of 10^6 CFU/ml and 10^7 CFU/ml, respectively. The plates were then incubated with gentle shaking at 30° C. or 37° C. depending on the preferred growth temperature of the tested strains. After 24 h, the plates were collected to measure OD600. The MIC was defined as the lowest concentration of the antibiotic allowing no visible growth. The MIC assay was repeated twice each time with triplicate.
The minimum inhibition concentration (MIC) of zeamine I was determined on a range of bacterial pathogens. […] In contrast, a high dosage of ampicillin, which is a commonly used antibiotic, was required to inhibit the growth of these bacterial pathogens.

[3] = tested on: Staphylococcus aureus BBA-41; experiment: MIC determination (NCCLS, 96-well, LB); details: BBA41, 1 × 10^6 CFU/ml in LB, 30° C., 24 h
Method: as §1

E. coli CFT073 = experiment: MIC determination (NCCLS, 96-well, LB); details: Escherichia coli, 1 × 10^6 CFU/ml in LB, 30° C., 24 h
Method: as §1

E. coli DH5α = experiment: MIC determination (NCCLS, 96-well, LB); details: Escherichia coli, 1 × 10^6 CFU/ml in LB, 30° C., 24 h
Method: as §1

[4] = tested on: Pseudomonas aeruginosa PA14; experiment: MIC determination (NCCLS, 96-well, LB); details: 1 × 10^6 CFU/ml in LB, 30° C., 24 h
Method: as §1

Salmonella enterica = experiment: MIC determination (NCCLS, 96-well, LB); details: 24 h
Method: as §1

[5] = tested on: Enterobacter aerogenes ATCC 13048; experiment: MIC determination (NCCLS, 96-well, LB); details: Klebsiella aerogenes, ATCC13048, 1 × 10^6 CFU/ml in LB, 30° C., 24 h
Method: as §1

Bacillus cereus XJ8 = experiment: MIC determination (NCCLS, 96-well, LB); details: 1 × 10^6 CFU/ml in LB, 30° C., 24 h
Method: as §1

[6] = tested on: Pseudomonas aeruginosa PAO1; experiment: MIC determination (NCCLS, 96-well, LB); details: 1 × 10^6 CFU/ml in LB, 30° C., 24 h
Method: as §1

[7] = tested on: Burkholderia cepacia J2315; experiment: MIC determination (NCCLS, 96-well, LB); details: 1 × 10^6 CFU/ml in LB, 30° C., 24 h
Method: as §1

[8] = tested on: Burkholderia cepacia H111; experiment: MIC determination (NCCLS, 96-well, LB); details: 1 × 10^6 CFU/ml in LB, 30° C., 24 h
Method: as §1

[9] = tested on: Staphylococcus aureus ATCC 25531; experiment: MIC determination (NCCLS, 96-well, LB); details: ATCC25531, 1 × 10^6 CFU/ml in LB, 30° C., 24 h
Method: as §1

Aeromonas hydrophila = experiment: MIC determination (NCCLS, 96-well, LB); details: 1 × 10^6 CFU/ml in LB, 30° C., 24 h
Method: as §1

Klebsiella pneumonia = experiment: MIC determination (NCCLS, 96-well, LB); details: Klebsiella pneumoniae, 1 × 10^6 CFU/ml in LB, 30° C., 24 h
Method: as §1

Compound	antibiotic activity of HPLC fraction in bioassay [1]	dosage required to inhibit the growth of these bacterial pathogens [2]	MIC [3] [µg/mL]	MIC (E. coli CFT073) [µg/mL]	MIC (E. coli DH5α) [µg/mL]	MIC [4] [µg/mL]	MIC (Salmonella enterica) [µg/mL]	MIC [5] [µg/mL]	MIC (Bacillus cereus XJ8) [µg/mL]	MIC [6] [µg/mL]	MIC [7] [µg/mL]	MIC [8] [µg/mL]	MIC [9] [µg/mL]	MIC (Aeromonas hydrophila) [µg/mL]	MIC (Klebsiella pneumonia) [µg/mL]
CCCCCC(N)CCCCCCCC(N)CCCCCCCC(N)CCCCCCCC(N)CCCCCCCC(O)CCN (stereo not drawn) [Zeamine II]	minor active fraction	–	–	–	–	–	–	–	–	–	–	–	–	–	–
CC1(C)S[C@@H]2[C@H](NC(=O)[C@H](N)c3ccccc3)C(=O)N2[C@H]1C(=O)O [Ampicillin]	–	high dosage	> 500	25 (≈ 71.5 µM)	25 (≈ 71.5 µM)	800 (≈ 2290 µM)	12.5 (≈ 35.8 µM)	> 800	100 (≈ 286 µM)	400 (≈ 1140 µM)	> 800	> 800	15.6 (≈ 44.6 µM)	125 (≈ 358 µM)	> 800
NC[C@H]1O[C@H](O[C@H]2[C@H](O)[C@@H](O[C@H]3O[C@H](CO)[C@@H](O)[C@H](N)[C@H]3O)[C@H](N)C[C@@H]2N)[C@H](O)[C@@H](O)[C@@H]1O [Kanamycin]	–	–	12.5 (≈ 25.8 µM)	6.2 (≈ 12.8 µM)	10 (≈ 20.6 µM)	200 (≈ 413 µM)	12.5 (≈ 25.8 µM)	3.1 (≈ 6.4 µM)	3.1 (≈ 6.4 µM)	200 (≈ 413 µM)	400 (≈ 826 µM)	6.2 (≈ 12.8 µM)	6.2 (≈ 12.8 µM)	25 (≈ 51.6 µM)	3.1 (≈ 6.4 µM)
CN(C)[C@@H]1C(O)=C(C(N)=O)C(=O)[C@@]2(O)C(O)=C3C(=O)c4c(O)cccc4[C@@](C)(O)[C@H]3C[C@@H]12 [Tetracycline]	–	–	6.2 (≈ 14 µM)	0.75 (≈ 1.69 µM)	3.1 (≈ 6.98 µM)	12.5 (≈ 28.1 µM)	–	3.1 (≈ 6.98 µM)	6.2 (≈ 14 µM)	–	50 (≈ 113 µM)	12.5 (≈ 28.1 µM)	3.1 (≈ 6.98 µM)	6.2 (≈ 14 µM)	6.2 (≈ 14 µM)
